Article PMC7261929, “A New Family of Jumonji C Domain-Containing KDM Inhibitors Inspired by Natural Product Purpurogallin” (Frontiers in Chemistry, 2020)

Columns and labels:
Format in all cases: biochemical
[1] = molecular target: T1, KDM4A (Homo sapiens, UniProt O75164); test: KDM4A enzymatic screening assay and fluorescence assay at […]
T1 sequence (O75164 2-1064): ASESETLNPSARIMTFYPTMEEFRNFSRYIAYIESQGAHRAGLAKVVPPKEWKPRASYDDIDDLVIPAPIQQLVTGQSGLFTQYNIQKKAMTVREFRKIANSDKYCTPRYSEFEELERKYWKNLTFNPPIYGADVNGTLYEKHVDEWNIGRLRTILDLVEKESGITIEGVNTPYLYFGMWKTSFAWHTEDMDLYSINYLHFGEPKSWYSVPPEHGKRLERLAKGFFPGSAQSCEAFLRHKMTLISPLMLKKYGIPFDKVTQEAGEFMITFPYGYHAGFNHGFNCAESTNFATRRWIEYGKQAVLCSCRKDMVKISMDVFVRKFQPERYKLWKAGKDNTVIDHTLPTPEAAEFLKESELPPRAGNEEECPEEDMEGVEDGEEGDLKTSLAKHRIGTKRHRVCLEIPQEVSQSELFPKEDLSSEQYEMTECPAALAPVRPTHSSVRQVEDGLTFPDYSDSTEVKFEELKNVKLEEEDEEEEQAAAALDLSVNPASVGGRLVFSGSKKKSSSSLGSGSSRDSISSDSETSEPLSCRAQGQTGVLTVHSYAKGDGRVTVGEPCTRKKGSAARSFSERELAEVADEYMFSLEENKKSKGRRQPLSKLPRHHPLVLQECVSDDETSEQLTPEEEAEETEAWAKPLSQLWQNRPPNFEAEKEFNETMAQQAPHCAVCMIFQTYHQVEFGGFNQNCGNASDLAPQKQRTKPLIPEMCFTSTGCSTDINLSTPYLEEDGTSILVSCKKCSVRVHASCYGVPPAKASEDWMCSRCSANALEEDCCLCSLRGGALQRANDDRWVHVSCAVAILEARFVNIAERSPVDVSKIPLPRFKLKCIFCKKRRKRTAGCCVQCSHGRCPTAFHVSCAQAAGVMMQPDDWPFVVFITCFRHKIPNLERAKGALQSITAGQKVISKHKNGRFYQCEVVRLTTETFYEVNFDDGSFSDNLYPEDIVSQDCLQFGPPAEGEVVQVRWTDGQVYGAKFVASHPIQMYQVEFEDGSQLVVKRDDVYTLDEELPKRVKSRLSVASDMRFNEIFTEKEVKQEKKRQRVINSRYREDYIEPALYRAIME

[2] = molecular target: T1, KDM4A; test: fluorescence demethylase enzymatic assay, single dose […]
[3] = molecular target: T2, KDM4D (Homo sapiens, UniProt Q6B0I6); test: fluorescence demethylase enzymatic assay, dose curve
T2 construct: KDM4D-GST recombinant enzyme
T2 sequence (Q6B0I6 1-523): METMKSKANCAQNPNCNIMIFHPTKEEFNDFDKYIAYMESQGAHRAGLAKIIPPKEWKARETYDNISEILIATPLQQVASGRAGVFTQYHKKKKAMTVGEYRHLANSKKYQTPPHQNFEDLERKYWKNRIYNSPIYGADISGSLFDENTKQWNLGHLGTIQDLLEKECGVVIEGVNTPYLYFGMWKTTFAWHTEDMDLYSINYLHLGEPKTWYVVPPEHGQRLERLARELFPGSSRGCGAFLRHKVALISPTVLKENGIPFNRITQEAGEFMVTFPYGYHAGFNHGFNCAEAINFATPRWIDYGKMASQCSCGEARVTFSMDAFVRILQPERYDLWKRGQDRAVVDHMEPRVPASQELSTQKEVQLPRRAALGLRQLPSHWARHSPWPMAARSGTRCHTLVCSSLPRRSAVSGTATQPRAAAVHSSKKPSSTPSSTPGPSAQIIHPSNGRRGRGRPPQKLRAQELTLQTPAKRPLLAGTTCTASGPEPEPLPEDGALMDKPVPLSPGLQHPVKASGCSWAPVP

[4] = molecular target: T3, KDM4B (Homo sapiens, UniProt O94953); test: as above
T3 construct: KDM4B-GST recombinant enzyme
T3 sequence (O94953 1-1096): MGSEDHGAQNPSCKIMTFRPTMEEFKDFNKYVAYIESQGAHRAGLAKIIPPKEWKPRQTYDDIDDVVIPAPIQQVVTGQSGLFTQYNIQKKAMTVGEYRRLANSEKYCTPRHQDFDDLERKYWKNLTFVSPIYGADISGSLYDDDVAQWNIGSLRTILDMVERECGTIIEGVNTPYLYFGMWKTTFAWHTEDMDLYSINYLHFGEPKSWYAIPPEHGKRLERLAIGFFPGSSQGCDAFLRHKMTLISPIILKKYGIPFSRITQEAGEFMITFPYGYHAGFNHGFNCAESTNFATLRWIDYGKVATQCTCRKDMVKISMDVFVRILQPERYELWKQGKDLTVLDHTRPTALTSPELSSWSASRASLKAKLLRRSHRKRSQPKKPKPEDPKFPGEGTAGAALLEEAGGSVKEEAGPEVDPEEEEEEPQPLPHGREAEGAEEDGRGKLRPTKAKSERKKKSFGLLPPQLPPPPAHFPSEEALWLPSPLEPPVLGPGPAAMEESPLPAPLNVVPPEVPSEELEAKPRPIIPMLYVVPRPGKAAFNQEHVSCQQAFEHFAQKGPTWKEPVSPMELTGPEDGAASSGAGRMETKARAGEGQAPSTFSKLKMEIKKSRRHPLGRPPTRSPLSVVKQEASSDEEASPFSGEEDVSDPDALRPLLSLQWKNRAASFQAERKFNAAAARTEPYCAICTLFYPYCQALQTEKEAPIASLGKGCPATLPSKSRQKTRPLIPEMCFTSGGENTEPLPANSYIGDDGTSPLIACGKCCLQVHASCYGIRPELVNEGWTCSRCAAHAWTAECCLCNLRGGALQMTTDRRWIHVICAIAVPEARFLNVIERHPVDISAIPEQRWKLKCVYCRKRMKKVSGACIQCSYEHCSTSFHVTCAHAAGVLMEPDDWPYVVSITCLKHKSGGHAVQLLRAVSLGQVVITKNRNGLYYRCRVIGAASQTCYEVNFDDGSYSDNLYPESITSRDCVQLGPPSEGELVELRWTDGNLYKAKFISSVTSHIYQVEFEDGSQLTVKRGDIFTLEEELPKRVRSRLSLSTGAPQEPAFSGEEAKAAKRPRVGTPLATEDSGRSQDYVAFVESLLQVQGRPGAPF

[5] = molecular target: T4, KDM4C (Homo sapiens, UniProt Q9H3R0); test: as above
T4 construct: KDM4C-GST recombinant enzyme
T4 sequence (Q9H3R0 1-1056): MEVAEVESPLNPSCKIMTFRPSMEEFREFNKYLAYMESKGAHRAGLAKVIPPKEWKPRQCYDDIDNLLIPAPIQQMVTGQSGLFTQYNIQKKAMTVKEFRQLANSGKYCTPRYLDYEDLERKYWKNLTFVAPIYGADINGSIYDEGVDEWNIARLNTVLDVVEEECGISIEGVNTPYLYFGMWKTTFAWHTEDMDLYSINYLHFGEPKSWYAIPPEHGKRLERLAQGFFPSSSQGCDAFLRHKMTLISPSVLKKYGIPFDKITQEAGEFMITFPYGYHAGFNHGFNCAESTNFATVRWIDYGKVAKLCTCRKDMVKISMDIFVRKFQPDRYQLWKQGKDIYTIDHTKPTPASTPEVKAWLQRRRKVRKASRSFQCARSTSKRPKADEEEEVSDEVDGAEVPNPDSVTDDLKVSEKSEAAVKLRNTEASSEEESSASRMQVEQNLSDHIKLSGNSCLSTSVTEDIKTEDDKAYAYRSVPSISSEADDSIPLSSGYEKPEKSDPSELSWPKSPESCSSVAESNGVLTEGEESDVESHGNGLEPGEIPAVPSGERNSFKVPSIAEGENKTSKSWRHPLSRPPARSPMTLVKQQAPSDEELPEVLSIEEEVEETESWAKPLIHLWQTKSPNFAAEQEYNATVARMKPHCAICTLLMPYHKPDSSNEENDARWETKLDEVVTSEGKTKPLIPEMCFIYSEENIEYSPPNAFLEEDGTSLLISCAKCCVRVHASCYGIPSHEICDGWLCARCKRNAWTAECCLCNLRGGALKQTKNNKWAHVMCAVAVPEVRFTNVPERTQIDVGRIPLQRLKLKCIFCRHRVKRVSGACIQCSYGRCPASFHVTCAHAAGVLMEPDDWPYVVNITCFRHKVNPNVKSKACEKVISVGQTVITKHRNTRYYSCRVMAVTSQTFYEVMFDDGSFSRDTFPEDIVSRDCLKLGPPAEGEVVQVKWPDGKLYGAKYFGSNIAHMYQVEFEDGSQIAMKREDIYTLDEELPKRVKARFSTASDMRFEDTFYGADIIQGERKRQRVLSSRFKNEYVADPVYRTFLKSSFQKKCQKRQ

[6] = molecular target: T1, KDM4A; test: AlphaLISA JMJD2A homogeneous demethylase assay, […] concentrations (fluorescence assay gave IC50 […])

Question: With `O=c1c(O)cccc2cc(O)c(O)c(O)c12` [9aa, 2,3,4,6-tetrahydroxy-5H-benzo[7]annulen-5-one] as the compound, how does the “KDM4A enzymatic screening assay and fluorescence assay at 50 μM” value [1] read?
Answer: Purpurogallin 9aa

Question: With `O=c1c(O)cccc2c(Br)cc(O)c(O)c12` [9ac, 1-bromo-3,4,6-trihydroxy-5H-benzo[7]annulen-5-one] as the compound, how does the inhibition at 50 µM [2] read?
Answer: 50%

Question: How did the inhibition at 50 µM [2] turn out when `O=C(O)c1cc(O)c(=O)c2c(O)c(O)cc(Br)c2c1` [9bc, 1-bromo-3,4,6-trihydroxy-5-oxo-5H-benzo[7]annulene-8-carboxylic acid] was run?
Answer: 80%

Question: How did the IC50 [3] turn out when `O=C(O)c1cc(O)c(=O)c2c(O)c(O)cc(-c3ccccc3)c2c1` [9bf, 3,4,6-trihydroxy-5-oxo-1-phenyl-5H-benzo[7]annulene-8-carboxylic acid] was run?
Answer: 28.5 µM

Question: What about the IC50 [4] of the same compound?
Answer: 35.9 µM

Question: And the IC50 [5]?
Answer: 38.9 µM

Question: What about the IC50 [6] of the same compound?
Answer: 10.1 µM
